Reference: patent US20230301300A1, “HERBICIDAL COMPOSITIONS” (SYNGENTA CROP PROTECTION AG, priority 2020, published 2023)

Legend:
Assay type in all cases: in vivo
Hordeum vulgare (HORVW) = assay: B2 Post-Emergence Efficacy - Test 2; conditions: 15 days after application, 0-100 scale
Experimental: (§1) Seeds of a variety of test species (see Table B1) were sown in standard soil in pots. After cultivation for 12 days (post-emergence) under controlled conditions in a glasshouse (at 24/18° C. or 20/16° C., at day/night; 16 hours light; 65% humidity), the plants were sprayed with an aqueous spray solution derived from the formulation of the technical active ingredient dissolved in IF50 (see Table B2 for composition) and adjuvant (Genapol X080) was added to the spray solution at a rate of 0.2% v/v.
(§2) After application, the test plants were grown in a glasshouse under controlled conditions (as above) and watered twice daily. Herbicidal activity was evaluated 15 days after application on a 0-100 scale. The results, where 0=no damage to test plant and 100=total kill of test plant are shown below in Tables 8 to 11.

Eleisine indica (ELEIN) = assay: B2 Post-Emergence Efficacy - Test 2; conditions: 15 days after application, 0=no damage, 100=total kill
Experimental: as §1, §2

Beta vulgaris (BEAVA) = assay: B2 Post-Emergence Efficacy - Test 2; conditions: 15 days after application, 0-100 scale
Experimental: as §1, §2

[1] = test system: Alopecurus myosuroides (ALOMY); assay: B2 Post-Emergence Efficacy - Test 2; conditions: 15 days after application, 0-100 scale
Experimental: as §1, §2

[2] = test system: Amaranthus retroflexus (AMARE); assay: B2 Post-Emergence Efficacy - Test 2; conditions: 15 days after application, 0-100 scale
Experimental: as §1, §2

Zea mays (ZEAMX) = assay: B2 Post-Emergence Efficacy - Test 2; conditions: 15 days after application; for Herbicidal activity ZEAMX: 0-100 scale; for Herbicidal activity on a 0-100 scale, ZEAMX: 0=no damage, 100=total kill
Experimental: as §1, §2

[3] = test system: Abutilon theophrasti (ABUTH); assay: B2 Post-Emergence Efficacy - Test 2; conditions: 15 days after application, 0-100 scale
Experimental: as §1, §2

[4] = test system: Echinochloa crus galli (ECHCG); assay: B2 Post-Emergence Efficacy - Test 2; conditions: 15 days after application, 0=no damage, 100=total kill
Experimental: as §1, §2

Bromus tectorum (BROTE) = assay: B2 Post-Emergence Efficacy - Test 2; conditions: 15 days after application, 0-100 scale
Experimental: as §1, §2

Glycine max (GLXMA) = assay: B2 Post-Emergence Efficacy - Test 2; conditions: 15 days after application; for Herbicidal activity GLXMA: 0-100 scale; for Herbicidal activity on a 0-100 scale, GLXMA: 0=no damage, 100=total kill
Experimental: as §1, §2

Setaria faberi (SETFA) [5] = assay: B2 Post-Emergence Efficacy - Test 2; conditions: 15 days after application, 0=no damage, 100=total kill
Experimental: as §1, §2

[6] = test system: Echinochloa crus-galli (ECHCG); assay: B1 Post-Emergence Efficacy - Test 1; conditions: 1000 g/ha, after 13 days, five point scale
Experimental: (§3) Seeds of a variety of test species are sown in standard soil in pots:— Solanum nigrum (SOLNI), Amaranthus retoflexus (AMARE), Setaria faberi (SETFA), Alopecurus myosuroides (ALOMY), Echinochloa crus-galli (ECHCG), Ipomoea hederacea (IPOHE), Lolium perenne (LOLPE). After 8 days cultivation (post-emergence) under controlled conditions in a glasshouse (at 24/16° C., day/night; 14 hours light; 65% humidity), the plants are sprayed with an aqueous spray solution derived from the formulation of the technical active ingredient in acetone/water (50:50) solution containing 0.5% Tween 20 (polyoxyethylene sorbitan monolaurate, CAS RN 9005-64-5). Compounds are applied at 1000 g/ha. The test plants are then grown in a glasshouse under controlled conditions in a glasshouse (at 24/16° C., day/night; 14 hours light; 65% humidity) and watered twice daily. After 13 days, the test is evaluated for the percentage damage caused to the plant. The biological activities are assessed on a five point scale (5=80-100%; 4=60-79%; 3=40-59%; 2=20-39%; 1=0-19%). A blank value in the table is indicative that the compound was not tested on that species.

[7] = test system: Amaranthus retoflexus (AMARE); assay: B1 Post-Emergence Efficacy - Test 1; conditions: 1000 g/ha, after 13 days, five point scale
Experimental: as §3

Lolium perenne (LOLPE) = assay: B1 Post-Emergence Efficacy - Test 1; conditions: 1000 g/ha, after 13 days, five point scale
Experimental: as §3

[8] = test system: Ipomoea hederacea (IPOHE); assay: B1 Post-Emergence Efficacy - Test 1; conditions: 1000 g/ha, after 13 days, five point scale
Experimental: as §3

Solanum nigrum (SOLNI) = assay: B1 Post-Emergence Efficacy - Test 1; conditions: 1000 g/ha, after 13 days, five point scale
Experimental: as §3

Setaria faberi (SETFA) [9] = assay: B1 Post-Emergence Efficacy - Test 1; conditions: 1000 g/ha, after 13 days, five point scale
Experimental: as §3

Cc1nn(C)c(=O)c(-c2c(F)ccc(Cl)c2CCc2ccc(C(F)(F)F)nc2)c1O [Compound 1.042, 4-[3-chloro-6-fluoro-2-[2-[6-(trifluoromethyl)-3-pyridyl]ethyl]phenyl]-5-hydroxy-2,6-dimethyl-pyridazin-3-one]
Herbicidal activity HORVW (Hordeum vulgare (HORVW); 15 g/Ha): 10 | Herbicidal activity HORVW (Hordeum vulgare (HORVW); 30 g/Ha): 20 | Herbicidal activity HORVW (Hordeum vulgare (HORVW); 60 g/Ha): 20 | Herbicidal activity HORVW (Hordeum vulgare (HORVW); 125 g/Ha): 40 | Herbicidal activity HORVW (Hordeum vulgare (HORVW); 250 g/Ha): 80 | Herbicidal activity HORVW (Hordeum vulgare (HORVW); 500 g/Ha): 80 | Herbicidal activity on a 0-100 scale, ELEIN (Eleisine indica (ELEIN); 15 g/Ha): 0 | Herbicidal activity on a 0-100 scale, ELEIN (Eleisine indica (ELEIN); 30 g/Ha): 70 | Herbicidal activity on a 0-100 scale, ELEIN (Eleisine indica (ELEIN); 60 g/Ha): 70 | Herbicidal activity on a 0-100 scale, ELEIN (Eleisine indica (ELEIN); 125 g/Ha): 80 | Herbicidal activity on a 0-100 scale, ELEIN (Eleisine indica (ELEIN); 250 g/Ha): 80 | Herbicidal activity on a 0-100 scale, ELEIN (Eleisine indica (ELEIN); 500 g/Ha): 90 | Herbicidal activity BEAVA (Beta vulgaris (BEAVA); 15 g/Ha): 80 | Herbicidal activity BEAVA (Beta vulgaris (BEAVA); 30 g/Ha): 70 | Herbicidal activity BEAVA (Beta vulgaris (BEAVA); 60 g/Ha): 80 | Herbicidal activity BEAVA (Beta vulgaris (BEAVA); 125 g/Ha): 90 | Herbicidal activity BEAVA (Beta vulgaris (BEAVA); 250 g/Ha): 90 | Herbicidal activity BEAVA (Beta vulgaris (BEAVA); 500 g/Ha): 90 | Herbicidal activity ALOMY ([1]; 15 g/Ha): 20 | Herbicidal activity ALOMY ([1]; 30 g/Ha): 60 | Herbicidal activity ALOMY ([1]; 60 g/Ha): 80 | Herbicidal activity ALOMY ([1]; 125 g/Ha): 80 | Herbicidal activity ALOMY ([1]; 250 g/Ha): 90 | Herbicidal activity ALOMY ([1]; 500 g/Ha): 90 | Herbicidal activity AMARE ([2]; 30 g/Ha): 100 | Herbicidal activity AMARE ([2]; 60 g/Ha): 100 | Herbicidal activity AMARE ([2]; 125 g/Ha): 100 | Herbicidal activity AMARE ([2]; 250 g/Ha): 100 | Herbicidal activity AMARE ([2]; 500 g/Ha): 100 | Herbicidal activity ZEAMX (Zea mays (ZEAMX); 15 g/Ha): 0 | Herbicidal activity on a 0-100 scale, ZEAMX (Zea mays (ZEAMX); 15 g/Ha): 0 | Herbicidal activity ZEAMX (Zea mays (ZEAMX); 30 g/Ha): 10 | Herbicidal activity on a 0-100 scale, ZEAMX (Zea mays (ZEAMX); 30 g/Ha): 10 | Herbicidal activity ZEAMX (Zea mays (ZEAMX); 60 g/Ha): 20 | Herbicidal activity on a 0-100 scale, ZEAMX (Zea mays (ZEAMX); 60 g/Ha): 20 | Herbicidal activity ZEAMX (Zea mays (ZEAMX); 125 g/Ha): 60 | Herbicidal activity on a 0-100 scale, ZEAMX (Zea mays (ZEAMX); 125 g/Ha): 60 | Herbicidal activity ZEAMX (Zea mays (ZEAMX); 250 g/Ha): 70 | Herbicidal activity on a 0-100 scale, ZEAMX (Zea mays (ZEAMX); 250 g/Ha): 70 | Herbicidal activity ZEAMX (Zea mays (ZEAMX); 500 g/Ha): 90 | Herbicidal activity on a 0-100 scale, ZEAMX (Zea mays (ZEAMX); 500 g/Ha): 90 | Herbicidal activity ABUTH ([3]; 15 g/Ha): 80 | Herbicidal activity ABUTH ([3]; 30 g/Ha): 90 | Herbicidal activity ABUTH ([3]; 60 g/Ha): 100 | Herbicidal activity ABUTH ([3]; 125 g/Ha): 100 | Herbicidal activity ABUTH ([3]; 250 g/Ha): 100 | Herbicidal activity ABUTH ([3]; 500 g/Ha): 100 | Herbicidal activity on a 0-100 scale, ECHCG ([4]; 15 g/Ha): 80 | Herbicidal activity on a 0-100 scale, ECHCG ([4]; 30 g/Ha): 90 | Herbicidal activity on a 0-100 scale, ECHCG ([4]; 60 g/Ha): 90 | Herbicidal activity on a 0-100 scale, ECHCG ([4]; 125 g/Ha): 90 | Herbicidal activity on a 0-100 scale, ECHCG ([4]; 250 g/Ha): 100 | Herbicidal activity on a 0-100 scale, ECHCG ([4]; 500 g/Ha): 100 | Herbicidal activity BROTE (Bromus tectorum (BROTE); 15 g/Ha): 20 | Herbicidal activity BROTE (Bromus tectorum (BROTE); 30 g/Ha): 30 | Herbicidal activity BROTE (Bromus tectorum (BROTE); 60 g/Ha): 70 | Herbicidal activity BROTE (Bromus tectorum (BROTE); 125 g/Ha): 80 | Herbicidal activity BROTE (Bromus tectorum (BROTE); 250 g/Ha): 80 | Herbicidal activity BROTE (Bromus tectorum (BROTE); 500 g/Ha): 90 | Herbicidal activity GLXMA (Glycine max (GLXMA); 15 g/Ha): 60 | Herbicidal activity on a 0-100 scale, GLXMA (Glycine max (GLXMA); 15 g/Ha): 60 | Herbicidal activity GLXMA (Glycine max (GLXMA); 30 g/Ha): 80 | Herbicidal activity on a 0-100 scale, GLXMA (Glycine max (GLXMA); 30 g/Ha): 80 | Herbicidal activity GLXMA (Glycine max (GLXMA); 60 g/Ha): 90 | Herbicidal activity on a 0-100 scale, GLXMA (Glycine max (GLXMA); 60 g/Ha): 90 | Herbicidal activity GLXMA (Glycine max (GLXMA); 125 g/Ha): 90 | Herbicidal activity on a 0-100 scale, GLXMA (Glycine max (GLXMA); 125 g/Ha): 90 | Herbicidal activity GLXMA (Glycine max (GLXMA); 250 g/Ha): 100 | Herbicidal activity on a 0-100 scale, GLXMA (Glycine max (GLXMA); 250 g/Ha): 100 | Herbicidal activity GLXMA (Glycine max (GLXMA); 500 g/Ha): 100 | Herbicidal activity on a 0-100 scale, GLXMA (Glycine max (GLXMA); 500 g/Ha): 100 | Herbicidal activity on a 0-100 scale, SETFA (Setaria faberi (SETFA) [5]; 15 g/Ha): 40 | Herbicidal activity on a 0-100 scale, SETFA (Setaria faberi (SETFA) [5]; 30 g/Ha): 80 | Herbicidal activity on a 0-100 scale, SETFA (Setaria faberi (SETFA) [5]; 60 g/Ha): 90 | Herbicidal activity on a 0-100 scale, SETFA (Setaria faberi (SETFA) [5]; 125 g/Ha): 90 | Herbicidal activity on a 0-100 scale, SETFA (Setaria faberi (SETFA) [5]; 250 g/Ha): 90 | Herbicidal activity on a 0-100 scale, SETFA (Setaria faberi (SETFA) [5]; 500 g/Ha): 100 | percentage damage caused to the plant, ECHCG [6]: 5 (5=80-100%) | percentage damage caused to the plant, AMARE [7]: 5 (5=80-100%) | percentage damage caused to the plant, LOLPE (Lolium perenne (LOLPE)): 5 (5=80-100%) | percentage damage caused to the plant, IPOHE [8]: 5 (5=80-100%) | percentage damage caused to the plant, SOLNI (Solanum nigrum (SOLNI)): 5 (5=80-100%) | percentage damage caused to the plant, SETFA (Setaria faberi (SETFA) [9]): 5 (5=80-100%)
